Experimental data taken from patent publication US7351731B2, “Azole derivatives and methods for making the same” (Board of Governors for Higher Education, State of Rhode …, priority 2005, dated 2008).
≈ marks a conversion by molar mass, not a printed value.

Legend:
C. albicans ATCC 14053 [1] = test: Interaction studies (FIC index) against C. albicans in SDB; format: cell-based, Candida albicans; conditions: for FIC index: mixed with FLC, C. albicans ATCC 14053, SDB
Source text: . Fractional Inhibitory Concentration (FIC) index [FICindex=FICA+FICB] calculation was used to determine synergism between different components of the synthesized compounds while administered separately, where FICA or FICB equals to MIC of compounds A or B in combination divided by MIC of drug A or B alone. If the FIC index is ≦0.5, the combination is synergistic. […]

C. albicans ATCC 14053 [2] = test: MIC microdilution susceptibility testing, C. albicans in RPMI; format: cell-based, Candida albicans; conditions: RPMI medium pH 6.9, 35-37° C., 24-48 h, average of three experiments; for MIC: Candida albicans, ATCC14053, read-out: MIC C. albicans ATCC 14053, RPMI
Procedure: (§1) Microorganisnis. […] Stock cultures were kept on Sabouraud dextrose agar (SDA; Becton-Dickinson and Co., Sparks, Md.). Subcultures were prepared on SDA at 35-37° C. Suspension cultures were prepared by inoculation of single colonies in 7 ml of normal saline solution.
(§2) Test compounds were dissolved in DMSO (0.56 mg/ml) and stored at 0° C. Working dilutions were made in RPMI or SDB medium. […] The final maximum concentration of DMSO in the assays was 5% (v/v).
(§3) Microdilutions for control experiments with C. albicans, A. niger, and C. neoformans were the modified method of National Committee for Clinical Laboratory Standards (NCCLS) method as described by Galgiani and by the more recent NCCLS M27-A microdilution methods as described previously. Galgiani, J. N. Antimicrob. Agents Chemother. […] Reference method for broth dilution antifungal susceptibility testing for yeasts. Approval standard. […] 9; C. arballeira, N. M., et al. Arch. Pharm.-Pharm. […] Dilutions were prepared in 0.1 ml of RPMI or SDB; the inocula were either 10^4 C. albicans or C. neoformans cells or A. niger spores. The tubes were incubated for 24-48 h at 36±1° C., and turbidity was read visually.

C. albicans ATCC 14053 [3] = test: MIC microdilution susceptibility testing, C. albicans in SDB; format: cell-based, Candida albicans; conditions: for MIC: Candida albicans, ATCC14053, pH 5.6, SDB medium pH 5.6, 35-37° C.; for MIC / MIC C. albicans ATCC 14053, SDB: 24-48 h, average of three experiments; for fold more active than FLC against C. albicans in SDB: MIC ratio to FLC; for MIC C. albicans ATCC 14053, SDB: SDB medium pH 5.6, 35-37° C.; for fold less antifungal activity against C. albicans in SDB than in RPMI: SDB versus RPMI
Procedure: as §1, §2, §3

C. neoformans ATCC 66031 = test: MIC microdilution susceptibility testing, C. neoformans in SDB; format: cell-based, Cryptococcus neoformans; conditions: SDB medium, 35-37° C., 24-48 h, average of three experiments; for MIC: Cryptococcus neoformans, ATCC66031
Procedure: as §1, §2, §3

A. niger ATCC 16404 = test: MIC microdilution susceptibility testing, A. niger in SDB; format: cell-based, Aspergillus niger; conditions: for fold more potent than FLC against A. niger: MIC ratio to FLC, SDB
Procedure: as §1, §2, §3

[4] = SDB medium, 35-37° C., 24-48 h, average of three experiments

| MIC (C. albicans ATCC 14053 [2]) [µg/mL] | MIC (C. albicans ATCC 14053 [3]) [µg/mL] | MIC (C. neoformans ATCC 66031) [µg/mL] | MIC (A. niger ATCC 16404; Aspergillus niger, ATCC16404, SDB medium, 35-37° C., 24-48 h, average of three experiments) [µg/mL] | Structure (SMILES) | FIC index (C. albicans ATCC 14053 [1]) | fold less antifungal inhibition than 1g used alone (C. albicans ATCC 14053 [1]; mixture with FLC, C. albicans, SDB) | fold more potent than FLC against A. niger (A. niger ATCC 16404) | MIC A. niger ATCC 16404, SDB (A. niger ATCC 16404; [4]) [µg/mL] | fold more active than FLC against C. albicans in SDB (C. albicans ATCC 14053 [3]) | MIC C. albicans ATCC 14053, SDB (C. albicans ATCC 14053 [3]) [µg/mL] | fold less antifungal activity against C. albicans in SDB than in RPMI (C. albicans ATCC 14053 [3]) [fold] | MIC C. neoformans ATCC 66031, SDB (C. neoformans ATCC 66031) [µg/mL] | MIC C. albicans ATCC 14053, RPMI (C. albicans ATCC 14053 [2]) [µg/mL] |
| --- | --- | --- | --- | --- | --- | --- | --- | --- | --- | --- | --- | --- | --- |
| 865 (≈ 3880 µM) | 865 (≈ 3880 µM) | 433 (≈ 1940 µM) | – | CCCCCCC(Br)C(=O)O (stereo not drawn) [2-Bromooctanoic acid, reference compound] | 0.30 | approximately 2 fold | – | – | – | – | – | – | – |
| – | – | – | – | CCCCCCC(Br)C(=O)OC(Cn1cncn1)(Cn1cncn1)c1ccc(F)cc1F (stereo not drawn) [Compound 1g, O-2-Bromooctanoylfluconazole] | 1.05 | – | at least 5.2 fold | 111 (≈ 217 µM) | at least 40 fold | 111 (≈ 217 µM) | 8 | 14 (≈ 27.4 µM) | – |
| 371 (≈ 1400 µM) | 185 (≈ 698 µM) | 23 (≈ 86.7 µM) | 93 (≈ 351 µM) | O=C(O)CCCCCCCCCCBr [11-Bromoundecanoic acid, reference compound] | 0.52 | – | – | – | – | – | – | – | – |
| – | – | – | – | O=C(CCCCCCCCCCBr)OC(Cn1cncn1)(Cn1cncn1)c1ccc(F)cc1F [Compound 1j, O-11-Bromoundecanoylfluconazole] | 1.04 | – | ≥ 1.5 fold | 395 (≈ 714 µM) | ≥ 22 fold | 198 (≈ 358 µM) | 17 | – | 12 (≈ 21.7 µM) |
